In brackets after ≈: the same amount, converted by molar mass. Several values for one entry are separate records, joined by “and”; a condition that tells them apart may be missing. Equal entries are not always repeated. Entries after “also recorded” stand apart in the source; their conditions may differ. Structures can show the parent of a compound that is named as a salt. Where two headings read alike, the source gives them in different places.
Key:
[1] = system: human salivary microbial flora; test: Minimal total inhibition concentration of tetracyclines for human salivary microbial flora (Example X); type: cell-based; settings: for bacterial growth from treated saliva: 1 h, aerobic blood agar
Method: (§1) Source of human salivary flora: undiluted saliva freshly collected from the mouth of a healthy adult who had refrained from fluid or food intake for three hours after breakfast prior to saliva collection.
Antibacterial agent: Doxycycline cyclate (a tetracycline) for injection USP, equivalent to 100 mg Doxycycline (Fugusawa USA, Inc., Deerfield, IL 60015-2548. Procedure:
1) An adequate amount of saliva was added to the vial of doxycycline to make a total volume of suspension of 3.1 ml, equivalent to a 32 mg/ml concentration of the antibacterial agent.
2) An aliquot of 0.2 ml of the 32 mg/ml doxycycline salivary solution was pipetted out for serial double dilutions in saliva in test tubes to the final concentrations of 32, 16, 8, 4, 2, 1, 0.5, 0.25 and 0.12 mg of doxycycline per ml.
3) All tubes containing saliva with different concentrations of doxycycline were incubated in 37 degrees Celsius for one hour.
4) At the end of the one-hour incubation, 0.1 ml of the salivary doxycycline solution was pipetted from each test tube and inoculated on the surface of a blood agar plate. An aliquot of 0.1 ml saliva sample containing no antibacterial agent was spread on the surface of a blood agar plate as control.
(§2) 5) After 18 hours of incubation in 37 degrees Celsius aerobically, the growth on the blood agar plates was inspected and compared for the presence or absence of bacterial colonies.

[2] = Topical dry dosage treatment of minor aphthous ulcers, gingivitis and periodontal infections; type: in vivo, human; settings: 50 mg dry dosage form, four times a day
Excerpt: The administration of the medicament depends upon the type of infection to be treated and the type and dosage of the antibacterial agent used. The appropriate antibacterial agent, dosage and treatment regimen can readily be determined by someone having ordinary skill in this art. […] Thorough tooth cleaning is advised prior to introduction of the medicament to an infected area.

[3] = cited from earlier work
[4] = Local concentration of oxytetracycline hydrochloride in saliva after a 50 mg troche; settings: for peak concentration locally at the site of the ulcer: assuming troche is dissolved in 0.1 ml of saliva
Excerpt: The final concentrations of oxytetracycline in the control standard nutrient broth were 0.25 mcg/ml, 0.5 mcg/ml, 1.0 mcg/ml, 2.0 mcg/ml, 4.0 mcg/ml, and 8.0 mcg/ml. The final dilutions of saliva sample were 1/50,000, 1/100,000, 1/200,000, 1/400,000, 1/800,000 and 1/1,600,000 for the peak concentration test tubes and 1/4,000. 1/8,000, 1/16,000 and 1/32,000 for the trough concentration test tubes. The Staphylococcus aureus (ATCC 29213) was also used as the standard test microorganism.

[5] = system: human salivary microbial flora; test: Minimal total inhibition concentration of ciprofloxacin for human salivary microbial flora (Example XI); type: cell-based; settings: 1 h, aerobic blood agar
Method: as §1
Antibacterial agent: Cipro (a member of the quinolone group) I.V. 200 mg in 20 ml (1%) for intravenous infusion. […] Division Bayer Corporation. Procedure:
1) An aliquot of 1 ml of the Cipro solution, 1%, was added to 1.5 ml to make a total volume of 2.5 ml, equivalent to a 4 mg/ml concentration of the antibacterial agent in saliva.
2) An aliquot of 0.2 ml of the 4 mg/ml Cipro salivary solution was pipetted out for serial double dilutions in saliva in test tubes to the final concentrations of 4, 2, 1, 0.5, 0.25 and 0.12 mg of Cipro per ml, respectively.
3) All tubes containing saliva with different concentrations of Cipro were incubated in 37 degrees Celsius for one hour.
4) At the end of the one-hour incubation, 0.1 ml of the salivary Cipro solution was pipetted from each test tube and inoculated on the surface of a blood agar plate. An aliquot of 0.1 ml saliva sample containing no Cipro was spread on the surface of a blood agar plate as control.
as §2

[6] = Local concentration of penicillin in saliva after a troche containing 50 mg penicillin G; type: in vivo, human; settings: assuming troche is dissolved in 0.1 ml of saliva
Method: The local concentration of penicillin in the saliva was determined as follows. […] This loculated pocket of saliva was not swallowed and was not to be diluted with excess saliva from other parts of the mouth for one hour. Two samples were taken for assay to determine the peak and trough local concentrations of penicillin during the one-hour duration of medicinal treatment. At the time when the troche was completely dissolved and one hour later, aliquots of 10 microliters were pipetted from this pocket of saliva solution at the site of medication, representing the peak level and the trough level of antibiotic concentration, and transferred into 10 ml of distilled water to make a 1:1.000 dilution and into 1 ml of distilled water to make a 1:100 dilution, respectively. The diluted saliva antibiotic solutions were passed through a sterile bacteria-filter to remove any bacterial or fungal contaminants of the oral flora.
For determination of the peak concentration, 1 ml of the bacteria-free filtrate was further diluted with 9 ml of nutrient broth to achieve a 1:10,000 dilution of the saliva. Then a serial two-fold dilution was made of this 1:10,000 diluted saliva sample with an equal volume of nutrient broth in a roll of test tubes to obtain a series of 1 ml aliquots of nutrient broth in which the saliva was diluted to 20,000, 40,000, 80,000, 160,000, 320,000, 640,000, 1,280,000 and 2,560,000 folds respectively. […] Thus the final dilutions of the saliva sample were in the range of 40,000 to 5,120,000 folds.
For determining the trough concentration, the entire 1 ml of the 1:100 diluted saliva filtrate was used to make the serial dilutions so that the final dilutions of saliva sample were in the range of 4,000 to 256,000 folds in the final test culture.
As control standards, a series of test tubes containing 1 ml of nutrient broth with varying concentrations of penicillin G potassium salt ranging from 0.1 units to 10 units/ml were similarly mixed with an equal volume of nutrient broth freshly inoculated with the standard tubes of Staphylococcus aureus. Both the test and control standard tubes were incubated at 37° C. for 18 hours. Among the test tubes showing no gross evidence of bacterial growth, the one containing the highest dilution of saliva and the one containing the least amount of penicillin G were considered as having the identical concentration of penicillin, i.e. the MIC of the staphylococcus aureus.

[7] = cited from earlier work; remark: listed apart in the source

C[C@H]1c2cccc(O)c2C(O)=C2C(=O)[C@]3(O)C(O)=C(C(N)=O)C(=O)[C@@H](N(C)C)[C@@H]3[C@@H](O)[C@@H]21 [doxycycline hyclate]
bacterial growth from treated saliva ([1]; 0.5 mg/ml): A few surviving or uninhibited bacteria grew into colonies
bacterial growth from treated saliva ([1]; 0.5, 0.25 and 0.12 mg/ml): Varying numbers of bacterial colonies were observed
bacterial growth from treated saliva ([1]; 1, 2, 4, 8, 16, 32 mg/ml): No bacterial colonies were observed; also recorded: either destroyed or totally inhibited
MIC ([1]; read-out: minimal total inhibition concentration, human salivary microbial flora): ~1000 µg/mL (≈ 2250 µM)
patients with complete relief of pains within about 48 hours [2]: over 90%
time to complete relief of pains [2]: ≤ 48 h
peak serum level ([3]; intravenous injection of 100 mg): 2.5 µg/mL
peak serum level ([3]; intravenous injection of 200 mg): 2.6 µg/mL
peak serum level ([3]; oral 200 mg, fasting adults): 2.6 to 3 µg/mL
peak serum concentration ([3]; oral ingestion of 100, fasting adults): 1.5 to 2.1 µg/mL

CN(C)[C@@H]1C(=O)C(C(N)=O)=C(O)[C@@]2(O)C(=O)C3=C(O)c4c(O)cccc4[C@@](C)(O)[C@H]3[C@H](O)[C@@H]12 [oxytetracycline hydrochloride]
trough concentration in saliva ([4]; 50 mg oxytetracycline hydrochloride troche, one hour, 60 min, hydrochloride): 8 mg/mL
initial peak concentration in saliva ([4]; 50 mg oxytetracycline hydrochloride troche, two subjects, hydrochloride): 800 mg/mL and 400 to 800 mg/mL
peak concentration locally at the site of the ulcer [4]: 400 to 800 mg/mL

O=C(O)c1cn(C2CC2)c2cc(N3CCNCC3)c(F)cc2c1=O [ciprofloxacin]
bacterial growth from treated saliva ([5]; 0.5 mg/ml): A few surviving or uninhibited bacteria grew into colonies
bacterial growth from treated saliva ([5]; 0.5, 0.25 and 0.12 mg/ml): Varying numbers of bacterial colonies were observed
bacterial growth from treated saliva ([5]; 1, 2 and 4 mg/ml): either destroyed or totally inhibited
bacterial growth from treated saliva ([5]; 1, 2 and 4 mg/ml, listed as Cipro): No bacterial colonies were observed

CN(C)[C@@H]1C(=O)C(C(N)=O)=C(O)[C@@]2(O)C(=O)C3=C(O)c4c(O)cccc4[C@@](C)(O)[C@H]3C[C@@H]12 [tetracycline HCL]
patients with complete relief of pains within about 48 hours [2]: over 90%
time to complete relief of pains [2]: ≤ 48 h

CCCCCCCCCCCCCCCCCC(=O)O [magnesium stearate]
initial concentration at the ulcer [6]: 10 mg/mL
peak concentration locally at the site of the ulcer [4]: 10 mg/mL

O=C1CCC(N2C(=O)c3ccccc3C2=O)C(=O)N1 (centres unmarked) [Thalidomide]
effectiveness of treatment ([7]; earlier treatments of oral infections / aphthous ulcers): effective in some HIV-infected patients
adverse effect ([7]; literature): teratogenic

From US6248718A, “Lesion-directed dry dosage forms of antibacterial agents for the treatment of acute mucosal infections of the oral cavity” (priority 1999, dated 2001)
